Test results as given in patent US20110071180A1, “SUB-TYPE SELECTIVE AMIDES OF DIAZABICYCLOALKANES” (Targacept, Inc., priority 2008, published 2011).
Read-outs that look alike come from different tables or passages of the source.

Key:
[1] = target: T1, human α4β2 nAChR subtype (Homo sapiens, UniProt P17787+P43681); assay: Radioligand binding, [3H]nicotine, membranes from SH-EP1/human α4β2 clonal cells; settings: [3H]nicotine 5 nM, SH-EP1/human α4β2 cell membranes
T1 construct: expressed in transfected cells; host or cells: SH-EP1 clonal cells expressing human α4β2
T1 sequence (P43681 29-627 limits assumed): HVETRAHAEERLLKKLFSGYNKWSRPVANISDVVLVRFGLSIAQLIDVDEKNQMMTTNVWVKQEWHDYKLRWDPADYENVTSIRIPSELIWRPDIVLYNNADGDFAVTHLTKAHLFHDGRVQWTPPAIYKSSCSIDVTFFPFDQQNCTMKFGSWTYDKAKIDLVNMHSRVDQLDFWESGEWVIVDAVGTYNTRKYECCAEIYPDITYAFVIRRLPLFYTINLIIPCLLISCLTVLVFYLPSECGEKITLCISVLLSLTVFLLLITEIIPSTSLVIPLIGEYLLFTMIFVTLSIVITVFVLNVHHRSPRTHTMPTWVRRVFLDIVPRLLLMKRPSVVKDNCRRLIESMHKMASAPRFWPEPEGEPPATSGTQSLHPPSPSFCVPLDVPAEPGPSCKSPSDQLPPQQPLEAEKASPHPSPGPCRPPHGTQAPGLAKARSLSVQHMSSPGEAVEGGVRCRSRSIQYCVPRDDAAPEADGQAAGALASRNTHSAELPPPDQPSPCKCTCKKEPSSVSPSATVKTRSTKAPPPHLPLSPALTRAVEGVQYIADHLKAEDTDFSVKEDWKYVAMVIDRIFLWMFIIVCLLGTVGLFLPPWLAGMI
T1 sequence (P17787 26-502): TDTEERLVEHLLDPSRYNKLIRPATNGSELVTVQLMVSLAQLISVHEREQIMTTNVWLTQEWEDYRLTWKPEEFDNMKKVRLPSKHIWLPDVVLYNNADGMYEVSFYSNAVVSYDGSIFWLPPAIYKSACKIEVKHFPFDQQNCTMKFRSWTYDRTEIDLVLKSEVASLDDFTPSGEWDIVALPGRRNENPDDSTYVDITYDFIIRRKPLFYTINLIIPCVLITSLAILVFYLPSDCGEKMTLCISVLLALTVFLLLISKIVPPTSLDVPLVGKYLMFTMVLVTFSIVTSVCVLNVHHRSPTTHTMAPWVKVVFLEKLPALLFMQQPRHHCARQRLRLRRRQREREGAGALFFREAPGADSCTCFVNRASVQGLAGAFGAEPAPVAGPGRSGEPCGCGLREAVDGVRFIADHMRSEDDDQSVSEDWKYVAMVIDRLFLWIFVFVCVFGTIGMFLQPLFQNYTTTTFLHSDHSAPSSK
Experimental: Preparation of membranes from SH-EP1/human α4β2 clonal cells: Cell pellets from 40 150 mm culture dishes were pooled, and homogenized by Polytron (Kinematica GmbH, Switzerland) in 20 milliliters of ice-cold preparative buffer. The homogenate was centrifuged at 48,000 g for 20 minutes at 4° C. The resulting pellet was re-suspended in 20 mL of ice-cold preparative buffer and stored at −20° C.
(§1) On the day of the assay, the frozen membranes were thawed and spun at 48,000×g for 20 min. The supernatant was decanted and discarded. The pellet was resuspended in Dulbecco's phosphate buffered saline (PBS, Life Technologies) pH 7.4 and homogenized with the Polytron for 6 seconds. Protein concentrations were determined using a Pierce BCA Protein Assay Kit, with bovine serum albumin as the standard (Pierce Chemical Company, Rockford, Ill.).
(§2) Membrane preparations (approximately 50 μg for human and 200-300 μg protein for rat α4β2) were incubated in PBS (50 μL and 100 μL respectively) in the presence of competitor compound (0.01 nM to 100 μM) and 5 nM [^3H]nicotine for 2-3 hours on ice. Incubation was terminated by rapid filtration on a multi-manifold tissue harvester (Brandel, Gaithersburg, Md.) using GF/B filters presoaked in 0.33% polyethyleneimine (w/v) to reduce non-specific binding. Tissue was rinsed 3 times in PBS, pH 7.4. Scintillation fluid was added to filters containing the washed tissue and allowed to equilibrate. Filters were then counted to determine radioactivity bound to the membranes by liquid scintillation counting (2200CA Tri-Carb LSC, Packard Instruments, 50% efficiency or Wallac Trilux 1450 MicroBeta, 40% efficiency, Perkin Elmer).
(§3) Data were expressed as disintegrations per minute (DPMs). Within each assay, each point had 2-3 replicates. The replicates for each point were averaged and plotted against the log of the drug concentration. IC50, which is the concentration of the compound that produces 50% inhibition of binding, was determined by least squares non-linear regression. Ki values were calculated using the Cheng-Prussof equation (1973): […]

[2] = target: T2, α7 nAChR subtype (Rattus norvegicus, UniProt Q05941); assay: Radioligand binding, [3H]MLA, rat hippocampus membranes; settings: for inhibition at 5 µM: read-out: α7 high through-put screening (HTS) result
T2 construct: The hippocampus was removed and placed in 10 volumes (weight:volume) of ice-cold preparative buffer; from tissue; host or cells: rat hippocampus membranes (female Sprague-Dawley)
T2 sequence (Q05941 23-502): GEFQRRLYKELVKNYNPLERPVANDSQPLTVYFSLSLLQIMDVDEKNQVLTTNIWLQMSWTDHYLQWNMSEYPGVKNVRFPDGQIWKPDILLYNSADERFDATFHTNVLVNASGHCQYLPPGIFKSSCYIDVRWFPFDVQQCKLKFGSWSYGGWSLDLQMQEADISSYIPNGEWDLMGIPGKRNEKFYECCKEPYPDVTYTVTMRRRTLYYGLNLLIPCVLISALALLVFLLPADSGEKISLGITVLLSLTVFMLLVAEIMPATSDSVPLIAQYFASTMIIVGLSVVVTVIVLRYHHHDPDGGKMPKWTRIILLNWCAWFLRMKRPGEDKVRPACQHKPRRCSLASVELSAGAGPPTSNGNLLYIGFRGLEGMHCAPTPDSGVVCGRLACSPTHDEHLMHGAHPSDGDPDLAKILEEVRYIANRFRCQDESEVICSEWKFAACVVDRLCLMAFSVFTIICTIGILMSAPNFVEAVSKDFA
Experimental: Rats (female, Sprague-Dawley), weighing 150-250 g, were maintained on a 12 h light/dark cycle and were allowed free access to water and food supplied by PMI Nutrition International, Inc. Animals were anesthetized with 70% CO2, then decapitated. Brains were removed and placed on an ice-cold platform. The hippocampus was removed and placed in 10 volumes (weight:volume) of ice-cold preparative buffer (137 mM NaCl, 10.7 mM KCl, 5.8 mM KH2PO4, 8 mM Na2HPO4, 20 mM HEPES (free acid), 5 mM iodoacetamide, 1.6 mM EDTA, pH 7.4); PMSF, dissolved in methanol to a final concentration of 100 μM, was added and the tissue suspension was homogenized by Polytron. The homogenate was centrifuged at 18,000×g for 20 min at 4° C. and the resulting pellet was re-suspended in 10 volumes of ice-cold water. After 60 min incubation on ice, a new pellet was collected by centrifugation at 18,000×g for 20 min at 4° C. The final pellet was re-suspended in 10 volumes of buffer and stored at −20° C. On the day of the assay, tissue was thawed, centrifuged at 18,000×g for 20 min, and then re-suspended in ice-cold PBS (Dulbecco's Phosphate Buffered Saline, 138 mM NaCl, 2.67 mM KCl, 1.47 mM KH2PO4, 8.1 mM Na2HPO4, 0.9 mM CaCl2, 0.5 mM MgCl2, Invitrogen/Gibco, pH 7.4) to a final concentration of approximately 2 mg protein/mL. Protein was determined by the method of Lowry et al., J. Biol. Chem. 193: 265 (1951), using bovine serum albumin as the standard.
The binding of [^3H]MLA was measured using a modification of the methods of Davies et al., Neuropharmacol. 38: 679 (1999). [^3H]MLA (Specific Activity=25-35 Ci/mmol) was obtained from Tocris. The binding of [^3H]MLA was determined using a 2 h incubation at 21° C. Incubations were conducted in 48-well micro-titre plates and contained about 200 μg of protein per well in a final incubation volume of 300 μL. The incubation buffer was PBS and the final concentration of [^3H]MLA was 5 nM. The binding reaction was terminated by filtration of the protein containing bound ligand onto glass fiber filters (GF/B, Brandel) using a Brandel Tissue Harvester at room temperature. Filters were soaked in de-ionized water containing 0.33% polyethyleneimine to reduce non-specific binding. Each filter was washed with PBS (3×1 mL) at room temperature. Non-specific binding was determined by inclusion of 50 μM non-radioactive MLA in selected wells.
The inhibition of [^3H]MLA binding by test compounds was determined by including seven different concentrations of the test compound in selected wells. Each concentration was replicated in triplicate. IC50 values were estimated as the concentration of compound that inhibited 50 percent of specific [^3H]MLA binding. Inhibition constants (Ki values), reported in nM, were calculated from the IC50 values using the method of Cheng et al., Biochem. Pharmacol. 22: 3099-3108 (1973).

[3] = target: T3, rat α4β2 nAChR subtype (Rattus norvegicus, UniProt P09483+P12390); assay: Radioligand binding, [3H]nicotine, rat cortex membranes; settings: 5 μM compound, 5 nM 3H-nicotine; Ki not determined
T3 construct: The cerebral cortex was removed and placed in 20 volumes (weight:volume) of ice-cold preparative buffer; from tissue; host or cells: rat cerebral cortex membranes (female Sprague-Dawley)
T3 sequence (P09483 31-630): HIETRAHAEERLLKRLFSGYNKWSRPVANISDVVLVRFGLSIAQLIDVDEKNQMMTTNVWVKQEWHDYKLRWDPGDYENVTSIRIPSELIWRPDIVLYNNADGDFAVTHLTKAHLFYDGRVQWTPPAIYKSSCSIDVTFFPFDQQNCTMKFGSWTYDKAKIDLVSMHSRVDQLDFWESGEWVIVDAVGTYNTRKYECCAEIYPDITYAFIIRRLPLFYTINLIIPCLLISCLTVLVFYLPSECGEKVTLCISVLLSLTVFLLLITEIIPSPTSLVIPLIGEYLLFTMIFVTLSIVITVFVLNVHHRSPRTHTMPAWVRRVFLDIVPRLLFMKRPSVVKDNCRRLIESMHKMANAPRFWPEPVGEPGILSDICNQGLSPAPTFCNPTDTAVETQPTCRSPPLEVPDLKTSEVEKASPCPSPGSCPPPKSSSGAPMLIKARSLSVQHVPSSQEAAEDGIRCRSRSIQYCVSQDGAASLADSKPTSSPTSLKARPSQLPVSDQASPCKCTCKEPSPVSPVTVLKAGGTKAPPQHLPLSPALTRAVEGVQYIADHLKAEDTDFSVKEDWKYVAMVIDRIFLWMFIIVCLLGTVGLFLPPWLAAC
T3 sequence (P12390 25-500): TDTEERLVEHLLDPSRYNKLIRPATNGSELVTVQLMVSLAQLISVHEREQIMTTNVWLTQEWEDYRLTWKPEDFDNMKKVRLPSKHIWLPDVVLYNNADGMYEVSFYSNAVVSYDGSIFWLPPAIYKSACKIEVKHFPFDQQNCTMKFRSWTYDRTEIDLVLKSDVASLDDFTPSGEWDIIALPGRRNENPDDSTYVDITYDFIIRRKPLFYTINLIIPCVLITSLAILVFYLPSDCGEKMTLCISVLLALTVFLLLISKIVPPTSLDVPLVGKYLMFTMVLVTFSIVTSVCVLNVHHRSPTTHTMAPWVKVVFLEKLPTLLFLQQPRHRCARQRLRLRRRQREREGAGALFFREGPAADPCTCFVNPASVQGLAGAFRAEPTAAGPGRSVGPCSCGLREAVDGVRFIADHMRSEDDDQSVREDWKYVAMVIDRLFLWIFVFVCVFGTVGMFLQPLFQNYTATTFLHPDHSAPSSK

[4] = system: rats; assay: Novel object recognition (NOR) task; type: in vivo, rat; settings: oral, 0.3 mg/kg
Experimental: FIG. 1 is a chart showing the results of a study on object recognition in rats treated orally with N-(propanoyl)-3,7-diazabicyclo[3.3.0]octane. The results are shown as a function of recognition index (%) versus dose (mg/kg). N-(Propanoyl)-3,7-diazabicyclo[3.3.0]octane is active orally in rats at 0.3 mg/kg in novel object recognition (NOR) task.
The novel object recognition (NOR) task was performed in accord with the description of Ennaceur and Delacour Behav. Brain Res. 100: 85-92 (1988).
Certain exemplified compounds were assessed in the NOR task. Thus, N-(propanoyl)-3,7-diazabicyclo[3.3.0]octane (Compound 10-16, Table 1) was active in NOR in rats, at […]. This provides evidence of the efficacy (and potency) of the compounds of the present invention in treating cognitive deficits, attentional disorders and dementias, and the potential of these compounds for human therapy.

[5] = target: T3, rat α4β2 nAChR subtype; assay: Radioligand binding, [3H]nicotine, rat cortex membranes; settings: [3H]nicotine 5 nM
Experimental: Preparation of Membranes from Rat Cortex: Rats (Female, Sprague-Dawley), weighing 150-250 g, were maintained on a 12 h light/dark cycle and were allowed free access to water and food supplied by PMI Nutrition International, Inc. Animals were anesthetized with 70% CO2, and then decapitated. Brains were removed and placed on an ice-cold platform. The cerebral cortex was removed and placed in 20 volumes (weight:volume) of ice-cold preparative buffer (137 mM NaCl, 10.7 mM KCl, 5.8 mM KH2PO4, 8 mM Na2HPO4, 20 mM HEPES (free acid), 5 mM iodoacetamide, 1.6 mM EDTA, pH 7.4); PMSF, dissolved in methanol to a final concentration of 100 μM, was added and the suspension was homogenized by Polytron. The homogenate was centrifuged at 18,000×g for 20 min at 4° C. and the resulting pellet was re-suspended in 20 volumes of ice-cold water. After 60 min incubation on ice, a new pellet was collected by centrifugation at 18,000×g for 20 min at 4° C. The final pellet was re-suspended in 10 volumes of buffer and stored at −20° C.
as §1, §2, §3

[6] = [3H]MLA 5 nM, rat hippocampus membranes, read-out: α7 Ki

SMILES	Ki [1] [nM]	inhibition at 5 µM [2] [%]	Rat α4β2 high through-put screening (HTS) result [3]	activity in novel object recognition (NOR) task (recognition index) [4]	Ki [5] [nM]	Ki [2, 6] [nM]	Ki ([2]; α7 Ki) [nM]
O=C(Cc1cccnc1)N1CC2CNCC2C1 (stereo not shown) [Example 10-6]	489	< 50	ND; failed HTS (the compound failed to inhibit, at 5 μM concentration, the binding of 5 nM ^3H-nicotine by at least 50%)	–	–	–	–
CCC(=O)N1CC2CNCC2C1 (stereo not shown) [Example 10-16, N-(propanoyl)-3,7-diazabicyclo[3.3.0]octane]	–	–	–	active	–	–	–
CC1(C)CC(C(=O)N2CC3CNCC3C2)C1 (stereo not shown) [Example 10-50]	129	< 50	ND; failed HTS (the compound failed to inhibit, at 5 μM concentration, the binding of 5 nM ^3H-nicotine by at least 50%)	–	–	–	–
O=C(C(O)c1ccccc1)N1CC2CNCC(C2)C1 (stereo not shown) [Example 10-64]	1530	< 50	ND; failed HTS (the compound failed to inhibit, at 5 μM concentration, the binding of 5 nM ^3H-nicotine by at least 50%)	–	–	–	–
COC(C(=O)N1CC2CNCC(C2)C1)c1ccccc1 (stereo not shown) [Example 10-65]	386	< 50	ND; failed HTS (the compound failed to inhibit, at 5 μM concentration, the binding of 5 nM ^3H-nicotine by at least 50%)	–	–	–	–
O=C(CC1CC1)N1CC2CNCC(C2)C1 [Example 10-83]	33.9	< 50	–	–	13.3	–	–
O=C(CS(=O)(=O)c1ccccc1)N1CC2CNCC(C2)C1 [Example 10-84]	598	< 50	–	–	959	–	–
CS(=O)(=O)CC(=O)N1CC2CNCC(C2)C1 [Example 10-85]	131	< 50	–	–	190	–	–
O=C(C1CCCC1)N1CC2CNCC(C2)C1 [Example 10-86]	20.2	–	–	–	26.6	211	–
O=C([C@H]1C[C@@H]1F)N1CC2CNCC(C2)C1 [Example 10-87]	5.2	–	–	–	11.4	–	592
O=C([C@@H]1C[C@H]1F)N1CC2CNCC(C2)C1 [Example 10-88]	1.4	–	–	–	1.8	–	243
O=C([C@@H]1C[C@@H]1F)N1CC2CNCC(C2)C1 [Example 10-89]	1	–	–	–	0.8	–	73.4
CC(F)(F)C(=O)N1CC2CNCC(C2)C1 [Example 10-90]	9.2	< 50	–	–	14.6	–	–
CC(C)(F)C(=O)N1CC2CNCC(C2)C1 [Example 10-91]	139	< 50	–	–	342	–	–
O=C([C@H]1C[C@H]1F)N1CC2CNCC(C2)C1 [Example 10-92]	7.3	–	–	–	15.9	–	360
O=C(C1CC2CCC1C2)N1CC2CNCC(C2)C1 (stereo not shown) [Example 10-93]	35.3	< 50	–	–	49.7	–	–
O=C(C1CC2C=CC1C2)N1CC2CNCC(C2)C1 (stereo not shown) [Example 10-94]	12.6	< 50	–	–	22.7	–	–
O=C([C@@H]1CC2C=CC1C2)N1CC2CNCC(C2)C1 (stereo partly shown) [Example 10-95]	2.2	< 50	–	–	4.9	–	–
O=C(C1CCC[C@H]1O)N1CC2CNCC(C2)C1 (stereo partly shown) [Example 10-96]	731	< 50	–	–	776	–	–
O=C(C1C2CCCCC21)N1CC2CNCC(C2)C1 (stereo not shown) [Example 10-97]	64.1	< 50	ND; failed HTS (the compound failed to inhibit, at 5 μM concentration, the binding of 5 nM ^3H-nicotine by at least 50%)	–	–	–	–
O=C(C1CC=CCC1)N1CC2CNCC(C2)C1 (stereo not shown) [Example 10-98]	134	–	–	–	198	794	–
O=C(Cn1ccnc1)N1CC2CNCC(C2)C1 [Example 10-99]	821	< 50	–	–	1320	–	–
O=C(C1C[C@H]2C=C[C@@H]1CC2)N1CC2CNCC(C2)C1 (stereo partly shown) [Example 10-100]	72.4	< 50	–	–	256	–	–
O=C(C1CC=CCC1c1cccnc1)N1CC2CNCC(C2)C1 (stereo not shown) [Example 10-101]	69.6	< 50	–	–	602	–	–
